Experiments:
HES2-CMs = assay: Cytosolic Ca2+ transients (Fura-2/AM spectrofluorometry) in HES2-CMs; assay type: cell-based, human
Protocol: Briefly, HES2 cells were grown on mitomycin C- (Sigma; St Louis, Mo., USA) inactivated mouse embryonic fibroblasts (mEFs). Culture medium consisted of DMEM (Invitrogen, Carlsbad, Calif.) containing 2 mM L-glutamine, insulin-transferrin-selenium, non-essential amino acids, 90 μM β-mercaptoethanol, and 20% FBS (Hyclone, Logan, Utah). HES2 cells were passaged manually (“cut-and-paste”), by cutting colony into pieces and removing them from the mEFs using dispase (8 mg/mL, Invitrogen, Carlsbad, Calif.). For cardiac differentiation, HES2 cells were removed from the mEFs, resuspended and broken into pieces, followed by co-culturing with the immortalized endoderm-like END2 cells at 100% confluence (6).
(§1) For isolating hESC-CMs, beating outgrowths were microsurgically dissected from H1- (7+11 to 17 or 18-24 days) and HES2- (18-24 days) derived EBs by a glass knife, (4) followed by incubation in collagenase II (1 mg/mL) at 37° C. for 30 min. The isolated cells were incubated with KB solution containing (mM): 85 KCl, 30 K2HPO4, 5 MgSO4, 1 EGTA, 2 Na2-ATP, 5 pyruvic acid, 5 creatine, 20 taurine, 20 d-glucose, at room temperature for 30 min. After the cells were plated on laminin-coated glass coverslips for 1 hr at 37° C., regular culture media was added. […] Calcium recordings from cell clusters containing 10-15 cells were performed within 48 hrs after plating.
(§2) A spectrofluorometric method with Fura-2/AM as the Ca^2+ indicator was used for measuring [Ca^2+]i. FLV- or hESC-CMs were incubated with 5 μM Fura-2/AM and 0.2% pluronic F-127 for 30 min at 37° C. Fluorescent signals obtained upon excitation at 340 nm (F340) and 380 nm (F380) were recorded from cells perfused with Tyrode solution containing (mM): 140 NaCl, 5.0 KCl, 1.0 CaCl2, 1.0 MaCl2, 10.0 glucose and 10 HEPES (pH 7.4) unless otherwise indicated. Data were analyzed using the Ionwizard software (Version 5, IonOptix) to generate the Ca transient parameters reported in this study. The F340/F380 ratio was used to represent cytosolic [Ca^2+]i. To induce cytoplasmic Ca^2+ transients, CMs were stimulated by electrically pulsing from 0.1 to 0.5 Hz or by caffeine application as indicated. For electrical stimulations, Ca^2+ transients were recorded and analyzed after a series of depolarizations that enabled each transient to fully decay so as to establish a steady-state SR content.

hESC-CMs = assay: Cytosolic Ca2+ transients (Fura-2/AM), HES2- and H1-CMs taken together; assay type: cell-based, human; details: for Effect on Vmax, upstroke of electrically evoked Ca2+ transients: 10 μM ryanodine, 30 min
Protocol: as §1, §2

H1-CMs [1] = assay: Cytosolic Ca2+ transients (Fura-2/AM spectrofluorometry) in H1-CMs; assay type: cell-based, human
Protocol: H1 cells were grown on irradiated mEFs from 13.5-day embryos of CF-1 mice and propagated as previously described (3). The culture medium consisted of 80% Dulbecco's modified Eagle's medium, 20% knockout serum replacement, 4 ng/ml basic fibroblast growth factor, 1 mmol/L glutamine, 0.1 mmol/L β-mercaptoethanol, and 1% nonessential amino acid solution (all from Gibco-BRL, Gaithersburg, Md.). To induce the formation of embryoid bodies (EBs), hESCs were detached using 1 mg/mL type IV collagenase (Gibco-BRL) and transferred to Petri dishes containing 80% Dulbecco's modified Eagle's medium, 20% fetal bovine serum defined (HyClone, Logan, Utah), 1 mmol/L glutamine, and 1% nonessential amino acid stock in the absence of β-FGF. The aggregates were cultured in suspension for 7 days, followed by plating on gelatin-coated (0.1%; Sigma-Aldrich, St. Louis) 6-well plates to form hESC-CMs.
as §1, §2

H1-CMs [2] = assay: Cytosolic Ca2+ transients (Fura-2/AM) in adenovirus-transduced H1-CMs; assay type: cell-based, human; details: for Electrically evoked Ca2+ transient amplitude after ryanodine / Upstroke velocity of Ca2+ transients after ryanodine: 10 μM ryanodine, 30 minutes
Source text: Human cardiac calsequestrin 2 (sc119365, Origene technologies, MD) was cloned and ligated into adenovirus shuttle vectors pAdCMV-IRES-GFP using primers creating Bmt and Spe I sites (pAdCMV-CSQ-IRES-GFP). IRES, internal ribosomal entry site, allows the simultaneous translation of CSQ and the fluorescence marker (GFP) with a single transcript. The truncated CSQ mutant was constructed in pAdCMV-IRES-GFP by deleting 817 bp (53 bp-869 bp) using the two EcoN I sites inside CSQ's coding sequence (Ad-CSQΔ). The resulting product after Hind III cutting was self-ligated to produce another control of pAdCMV-GFP (Ad-GFP). Adenoviruses were generated by Cre-lox recombination of purified ψ5 viral DNA and shuttle vector DNA using Cre4 cells as described previously (56).
For isolating H1-CMs, beating outgrowths were microsurgically dissected from H1- derived EBs (7+14 to 7+21 days) by a glass knife, followed by incubation in collagenase II (1 mg/mL) at 37° C. for 30 min. The isolated cells were incubated with KB solution containing (mM): 85 KCl, 30 K2HPO4, 5 MgSO4, 1 EGTA, 2 Na2-ATP, 5 pyruvic acid, 5 creatine, 20 taurine, 20 d-glucose, at room temperature for 30 min. After the cells were plated on gelatin-coated glass coverslips for 1 hr at 37° C., regular culture media was added. After 48 hours, plated H1-CMs were infected with adenoviruses for 3 hours. Recordings were performed within 24-48 hrs after infection.
A spectrofluorometric method with Fura-2/AM as the Ca^2+ indicator was used for measuring [Ca^2+]i. H1-CMs were incubated with 10 μM Fura-2/AM and 0.2% pluronic F-127 for 30 min at 37° C. Fluorescent signals obtained upon excitation at 340 nm (F340) and 380 nm (F380) were recorded from cells perfused with Tyrode solution containing (mM): 140 NaCl, 5.0 KCl, 1.0 CaCl2, 1.0 MaCl2, 10.0 glucose and 10 HEPES (pH 7.4) unless otherwise indicated. Data were analyzed using the Ionwizard software (Version 5, IonOptix) to generate the Ca^2+ transient parameters reported in this study. The F340/F380 ratio was used to represent cytosolic [Ca^2+]i. To induce cytoplasmic Ca^2+ transients, CMs were stimulated by electrically pulsing from 0.1 to 0.5 Hz or by caffeine application as indicated.
For electrical stimulations, Ca^2+ transients were recorded and analyzed after a series of depolarizations that enabled each transient to fully decay so as to establish a steady-state SR content.

FLV-CMs = assay: Cytosolic Ca2+ transients (Fura-2/AM spectrofluorometry) in human fetal left ventricular CMs; assay type: cell-based; details: caffeine 10 mM, brief exposure, no Ca2+ in extracellular bath
Source text: Human FLV-CMs and adult-CMs were isolated and experimented according to protocols approved by the UC Davis IUPAC and IRB (Protocol #200614787-1 and # 200614594-1). Briefly, fetal human hearts (16-18 weeks, Advanced Bioscience Resources, INC. Alameda, Calif.) and adult human hearts (18+ years, National Disease Research Interchange, Philadelphia, Pa.) were perfused with enzymatic solutions using a customized Langendorff apparatus as previously described (19). […]
as §2, with “FLV- or hESC-CMs were incubated with 5 μM Fura-2/AM and 0.2% pluronic F-127 for 30 min at 37° C.” left out, “The F340/F380 ratio was used to represent cytosolic [Ca^2+]i. To induce cytoplasmic Ca^2+ transients, CMs were stimulated by electrically pulsing from 0.1 to 0.5 Hz or by caffeine application as indicated.” left out

## Cn1c(=O)c2c(ncn2C)n(C)c1=O [caffeine]
HES2-CMs; caffeine 10 mM, brief exposure, no Ca2+ in extracellular bath, HES2-CMs
  Percentage of cells with caffeine-induced Ca2+ transients (caffeine-responsive cells): 40%
hESC-CMs; hESC-CMs (HES2- and H1-CMs pooled)
  Percentage of cells with caffeine-induced large Ca2+ transients: ~38%
H1-CMs [1]; caffeine 10 mM, brief exposure, no Ca2+ in extracellular bath, H1-CMs
  Percentage of cells with caffeine-induced Ca2+ transients (caffeine-responsive cells): 35%
H1-CMs [2]; caffeine 10 mM, brief exposure, transduced H1-CMs
  Cytosolic Ca2+ response to caffeine: robust cytosolic Ca^2+ increase
FLV-CMs
  Percentage of cells with caffeine-induced rise in cytosolic Ca2+ (caffeine-responsive cells): 65%

## ryanodine
HES2-CMs; 10 μM ryanodine, 30 min, caffeine-insensitive HES2-CMs
  Effect on electrically evoked Ca2+ transient amplitude: not affected
HES2-CMs; 10 μM ryanodine, 30 min, caffeine-responsive HES2-CMs
  Reduction of electrically evoked Ca2+ transient amplitude: 37±4.8%
hESC-CMs; caffeine-insensitive cells
  Effect on Vmax, upstroke of electrically evoked Ca2+ transients: not
hESC-CMs; caffeine-responsive cells
  Effect on Vmax, upstroke of electrically evoked Ca2+ transients: significantly slowed
H1-CMs [1]; 10 μM ryanodine, 30 min, caffeine-insensitive H1-CMs
  Effect on electrically evoked Ca2+ transient amplitude: not affected
H1-CMs [1]; 10 μM ryanodine, 30 min, caffeine-responsive H1-CMs
  Reduction of electrically evoked Ca2+ transient amplitude: 18±4.3%
H1-CMs [2]; H1-CMs transduced with Ad-CSQ
  Electrically evoked Ca2+ transient amplitude after ryanodine: 78%
  Upstroke velocity of Ca2+ transients after ryanodine: 67%
H1-CMs [2]; H1-CMs transduced with Ad-CSQΔ
  Electrically evoked Ca2+ transient amplitude after ryanodine: 84%
  Upstroke velocity of Ca2+ transients after ryanodine: 62%
H1-CMs [2]; H1-CMs transduced with Ad-GFP
  Electrically evoked Ca2+ transient amplitude after ryanodine: 80%
  Upstroke velocity of Ca2+ transients after ryanodine: 64%

## C/C=C(/C)C(=O)O[C@H]1C(C)=C2[C@H]([C@@H]1OC(=O)CCCCCCC)[C@@](C)(OC(C)=O)C[C@H](OC(=O)CCC)[C@@]1(O)[C@H]2OC(=O)[C@@]1(C)O [thapsigargin]
HES2-CMs; thapsigargin 0.5 μM, 15 min, HES2-CMs
  Effect on Vmax, decay of electrically evoked Ca2+ transients: significantly slowed
HES2-CMs; thapsigargin 0.5 μM, 15 min, caffeine-responsive HES2-CMs
  Effect on electrically evoked Ca2+ transient amplitude: significantly reduced
H1-CMs [1]; thapsigargin 0.5 μM, 15 min, H1-CMs
  Effect on Vmax, decay of electrically evoked Ca2+ transients: significantly slowed
H1-CMs [1]; thapsigargin 0.5 μM, 15 min, caffeine-responsive H1-CMs
  Effect on electrically evoked Ca2+ transient amplitude: significantly reduced
H1-CMs [2]; thapsigargin (0.5 μM), 15 min, H1-CMs transduced with Ad-CSQ
  Decay velocity of Ca2+ transients after thapsigargin: 61%
H1-CMs [2]; thapsigargin (0.5 μM), 15 min, H1-CMs transduced with Ad-CSQΔ
  Decay velocity of Ca2+ transients after thapsigargin: 65%
H1-CMs [2]; thapsigargin (0.5 μM), 15 min, H1-CMs transduced with Ad-GFP
  Decay velocity of Ca2+ transients after thapsigargin: 69%
H1-CMs [2]; thapsigargin (0.5 μM), 15 min, transduced H1-CMs (all three groups)
  Ca2+ transient amplitude after thapsigargin: unchanged

From US9045731B2, “Compositions and methods for improving the functional efficacy of stem cell-derived cardiomyocytes” (The Regents of the University of California, priority 2007, dated 2015)
